Measured values published in US20100173943A1, “INSECTICIDAL COMPOSITIONS WITH IMPROVED ACTION” (BAYER CROPSCIENCE AG, priority 2007, published 2010).

Experiments:
[1] = tested on: cotton aphid (Aphis gossypii); experiment: Aphis gossypii test (APHIGO spray treatment); assay type: in vivo; conditions: cotton leaves sprayed, 6 days; for pest or weed control at 20 ppm: 20 ppm a.i. alone; for pest or weed control at 100 ppm: 100 ppm a.i. alone
Protocol: Aphis gossypii Test (APHIGO Spray Treatment)
(§1) Solvent: 7 parts by weight of dimethylformamide
(§2) Emulsifier: 2 parts by weight of alkylaryl polyglycol ether
(§3) To prepare a ready-to-use active ingredient formulation, 1 part by weight of active ingredient is mixed with the specified amounts of solvent and emulsifier and the concentrate is diluted with emulsifier-containing water to the desired concentration. In the case that addition of ammonium salts, penetrants, or ammonium salts and penetrants is required, they are pipetted in each case into the finished preparation solution after dilution in a concentration of 1000 ppm each.
Cotton leaves (Gossypium hirsutum) highly infested by the cotton aphid (Aphis gossypii) are sprayed with an active ingredient formulation with the desired concentration.
After the desired period, the kill rate in % is determined. 100% means that all aphids have been killed; 0% means that no aphids have been killed.

[2] = tested on: green peach aphid (Myzus persicae); experiment: Myzus persicae test (MYZUPE); assay type: in vivo; conditions: pepper plants sprayed, 6 days; for pest or weed control at 4 ppm: 4 ppm a.i. alone; for pest or weed control at 20 ppm: 20 ppm a.i. alone; for pest or weed control at 100 ppm: 100 ppm a.i. alone
Protocol: Myzus persicae Test (MYZUPE)
as §1, §2
as §3, with “prepare an appropriate” for “prepare a ready-to-use”, “the given” for “the specified”, “and emulsifier,” for “and emulsifier”, “are pippetted” for “are pipetted”
Pepper plants (Capsicum annuum) highly infested by the green peach aphid (Myzus persicaei) are treated by spraying with the active ingredient formulation in the desired concentration.
After the desired time, the kill rate in % is determined. 100% means that all animals have been killed; 0% means that no animals have been killed.

[3] = 0.8 ppm a.i. + AMS and RME 1000 ppm each
[4] = 0.8 ppm a.i. + ammonium sulphate 1000 ppm
[5] = 0.8 ppm a.i. + rapeseed oil methyl ester 1000 ppm
[6] = 20 ppm a.i. + AMS and RME 1000 ppm each
[7] = 20 ppm a.i. + ammonium sulphate 1000 ppm
[8] = 20 ppm a.i. + rapeseed oil methyl ester 1000 ppm
[9] = Aphis gossypii, 144 h, read-out: Kill in % after 6 days a.i.
[10] = 4 ppm a.i. + AMS and RME 1000 ppm each
[11] = 4 ppm a.i. + ammonium sulphate 1000 ppm
[12] = 4 ppm a.i. + rapeseed oil methyl ester 1000 ppm
[13] = Myzus persicae, 144 h, read-out: Kill in % after 6 days a.i.
[14] = 100 ppm a.i. + AMS and RME 1000 ppm each
[15] = 100 ppm a.i. + ammonium sulphate 1000 ppm
[16] = 100 ppm a.i. + rapeseed oil methyl ester 1000 ppm

Row | SMILES | Kill in % after 6 days +AMS + RME [1, 6] | Kill in % after 6 days +AMS [1, 7] | Kill in % after 6 days +RME [1, 8] | pest or weed control at 20 ppm [1, 9] | Kill in % after 6 days +AMS + RME [2, 6] | Kill in % after 6 days +AMS [2, 7] | Kill in % after 6 days +RME [2, 8] | pest or weed control at 20 ppm [2, 13] | Kill in % after 6 days +AMS + RME [2, 14] | Kill in % after 6 days +AMS [2, 15] | Kill in % after 6 days +RME [2, 16] | pest or weed control at 100 ppm [2, 13] | Kill in % after 6 days +AMS + RME [1, 14] | Kill in % after 6 days +AMS [1, 15] | Kill in % after 6 days +RME [1, 16] | pest or weed control at 100 ppm [1, 9] | also measured
1 | O=C1C=C(N(Cc2ccc(Cl)nc2)C2CC2)CO1 [Compound I-31, 4-{[(6-chloropyrid-3-yl)methyl](cyclopropyl)amino}furan-2(5H)-one] |  |  |  |  |  |  |  |  |  |  |  |  |  |  |  |  | Kill in % after 6 days +AMS + RME ([1]; 0.16 ppm a.i. + AMS and RME 1000 ppm each): 60%; Kill in % after 6 days +AMS ([1]; 0.16 ppm a.i. + ammonium sulphate 1000 ppm): 30%; Kill in % after 6 days +RME ([1]; 0.16 ppm a.i. + rapeseed oil methyl ester 1000 ppm): 15%; Kill in % after 6 days +AMS + RME [1, 3]: 80%; Kill in % after 6 days +AMS [1, 4]: 65%; Kill in % after 6 days +RME [1, 5]: 80%; pest or weed control at 0.16 ppm ([1]; Aphis gossypii, 144 h, 0.16 ppm a.i. alone, read-out: Kill in % after 6 days a.i.): 0%; pest or weed control at 0.8 ppm ([1]; Aphis gossypii, 144 h, 0.8 ppm a.i. alone, read-out: Kill in % after 6 days a.i.): 50%; Kill in % after 6 days +AMS + RME [2, 3]: 95%; Kill in % after 6 days +AMS [2, 4]: 80%; Kill in % after 6 days +RME [2, 5]: 100%; pest or weed control at 0.8 ppm ([2]; Myzus persicae, 144 h, 0.8 ppm a.i. alone, read-out: Kill in % after 6 days a.i.): 50%
2 | C=CCN(Cc1ccc(Cl)nc1)C1=CC(=O)OC1 [Compound I-32, 4-{allyl[(6-chloropyrid-3-yl)methyl]amino}furan-2(5H)-one] | 100% | 100% | 100% | 0% | 100% | 100% | 98% | 15% |  |  |  |  |  |  |  |  | Kill in % after 6 days +AMS + RME [2, 10]: 80%; Kill in % after 6 days +AMS [2, 11]: 60%; Kill in % after 6 days +RME [2, 12]: 70%; pest or weed control at 4 ppm [2, 13]: 0%
3 | C#CCN(Cc1ccc(Cl)nc1)C1=CC(=O)OC1 [Compound I-33, 4-{[(6-chloropyrid-3-yl)methyl](prop-2-yn-1-yl)amino}furan-2(5H)-one] |  |  |  |  |  |  |  |  | 95% | 45% | 95% | 40% |  |  |  |  | Kill in % after 6 days +AMS + RME [1, 10]: 15%; Kill in % after 6 days +AMS [1, 11]: 25%; Kill in % after 6 days +RME [1, 12]: 65%; pest or weed control at 4 ppm ([1]; Aphis gossypii, 144 h, 4 ppm a.i. alone, read-out: Kill in % after 6 days a.i.): 30%
4 | CCCN(Cc1ccc(Cl)nc1)C1=CC(=O)CCC1 [Compound I-34, 3-{[(6-chloropyrid-3-yl)methyl](propyl)amino}cyclohex-2-en-1-one] |  |  |  |  |  |  |  |  | 85% | 50% | 85% | 40% | 45% | 20% | 40% | 15% | 
5 | C#CCN(Cc1ccc(Cl)nc1)C1=CC(=O)CCC1 [Compound I-36, 3-{[(6-chloropyrid-3-yl)methyl](prop-2-yn-1-yl)amino}cyclohex-2-en-1-one] | 65% | 15% | 45% | 30% | 85% | 25% | 85% | 40% |  |  |  |  | 99% | 98% | 80% | 55% | 
6 | O=C1C=C(NCc2ccc(Cl)nc2)CCC1 [Compound I-37, 3-{[(6-chloropyrid-3-yl)methyl]amino}cyclohex-2-en-1-one] | 65% | 45% | 40% | 55% | 95% | 35% | 90% | 20% |  |  |  |  |  |  |  |  | 
7 | CN(Cc1ccc(Cl)nc1)C1=CC(=O)CCC1 [Compound I-38, 3-{[(6-chloropyrid-3-yl)methyl](methyl)amino}cyclohex-2-en-1-one] |  |  |  |  |  |  |  |  |  |  |  |  | 55% | 90% | 70% | 45% | Kill in % after 6 days +AMS + RME [2, 10]: 70%; Kill in % after 6 days +AMS [2, 11]: 5%; Kill in % after 6 days +RME [2, 12]: 65%; pest or weed control at 4 ppm [2, 13]: 5%
8 | CCN(Cc1ccc(Cl)nc1)C1=CC(=O)CCC1 [Compound I-39, 3-{[(6-chloropyrid-3-yl)methyl](ethyl)amino}cyclohex-2-en-1-one] |  |  |  |  | 30% | 25% | 80% | 20% | 95% | 90% | 95% | 85% | 60% | 45% | 60% | 45% | 
